What follows are molecules tested against T1, BCAT2 (Homo sapiens, UniProt O15382) (assay: BCAT2 in vitro enzyme inhibition assay (resazurin/diaphorase-coupled fluorescence)). Details: average where tested multiple times.
T1 sequence (O15382 28-392): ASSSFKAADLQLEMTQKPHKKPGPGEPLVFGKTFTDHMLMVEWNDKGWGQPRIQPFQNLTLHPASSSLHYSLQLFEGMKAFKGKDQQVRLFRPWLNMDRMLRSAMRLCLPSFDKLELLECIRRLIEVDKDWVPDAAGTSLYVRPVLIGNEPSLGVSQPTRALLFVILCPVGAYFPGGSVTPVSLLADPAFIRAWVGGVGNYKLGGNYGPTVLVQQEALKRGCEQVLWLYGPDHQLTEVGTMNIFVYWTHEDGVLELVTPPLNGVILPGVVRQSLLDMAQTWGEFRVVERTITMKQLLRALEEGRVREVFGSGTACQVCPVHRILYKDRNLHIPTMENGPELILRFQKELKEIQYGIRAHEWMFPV
Type: biochemical
Experimental: BCAT2 In Vitro Enzyme Inhibition Assay
1.67× hBCAT2 Enzyme Mix: 0.33 μg/mL hBCAT2, 1× Buffer
2.5× Substrate Mix: 460 μM L-leucine, 420 μM α-KetoGlutarate, 10 U/mL glutamate dehydrogenase, 10 mM NAD, 30 μg/mL diaphorase, 20 μm Resazurin
BCAT2 enzyme stock solution was diluted to prepare a 1.67× hBCAT2 Enzyme Mix. 1 μL of test compound was first added to the reaction wells followed by 30 μL of 1.67× hBCAT2 Enzyme Mix and incubated at room temperature (25° C.) for one hour. Meanwhile the Substrate Mix was prepared. The reaction was initiated by the addition of 20 μL of the 2.5× Substrate Mix, bringing the final reaction mix of all components to 1×. Reactions were quenched after one hour by the addition of 25 μL of 6% SDS and reaction progress was measured via fluorescence read (Ex 540/Em 590).
Test Compound Preparation:
Test compounds were prepared at 50× final concentration in DMSO, 1 to 3 dilutions were made for 10 points. The compounds were added to the assay as a 1 to 50 dilution (1 μL in 50 μL) to yield a top assay final concentration of 100 μM, decreasing 3-fold for 10 points. Each compound dilution series test also included an assay max (1 μL DMSO Added in lieu of compound, Full Reaction Components Included) and Min (1 μL DMSO Added in lieu of compound, 30 μl of 1.67× hBCAT2 Enzyme Mix replated by 30 μL of 1× Buffer). All tests were performed in technical duplicate.
Where a compound was tested multiple times, the average value of the tests is reported.

First: CC(=O)Cc1nc2cnc(-c3ccccn3)cc2n1[C@@H]1CCC[C@H](NC(=O)c2ncc(Cl)s2)C1 [Example 362, 5-chloro-N-((1S,3R)-3-(2-(2-oxopropyl)-6-(pyridin-2-yl)-1H-imidazo[4,5-c]pyridin-1-yl)cyclohexyl)thiazole-2-carboxamide]
Second: CN(C)Cc1ccccc1-c1nc2cnc(-c3nc[nH]n3)cc2n1[C@@H]1CCC[C@H](NC(=O)c2ncc(Cl)s2)C1 [Example 375, 5-chloro-N-((1S,3R)-3-(2-(2-((dimethylamino)methyl)phenyl)-6-(1H-1,2,4-triazol-3-yl)-1H-imidazo[4,5-c]pyridin-1-yl)cyclohexyl)thiazole-2-carboxamide]
The IC50 of the first is higher: over 1000 nM for the first, 500 to 1000 nM for the second. The second is the more potent here.

First: CC(=O)N[C@H](c1nc2cnc(-c3nc[nH]n3)cc2n1[C@@H]1CCC[C@H](NC(=O)c2ncc(Cl)s2)C1)C(C)C [Example 368, N-((1S,3R)-3-(2-((S)-1-acetamido-2-methylpropyl)-6-(1H-1,2,4-triazol-3-yl)-1H-imidazo[4,5-c]pyridin-1-yl)cyclohexyl)-5-chlorothiazole-2-carboxamide]
Second: CC(C)Cc1nc2cnc(-c3nc[nH]n3)cc2n1[C@@H]1CCC[C@H](NC(=O)c2ncc(Cl)s2)[C@@H]1O [Example 408, 5-chloro-N-((1S,2S,3R)-2-hydroxy-3-(2-isobutyl-6-(1H-1,2,4-triazol-3-yl)-1H-imidazo[4,5-c]pyridin-1-yl)cyclohexyl)thiazole-2-carboxamide]
The IC50 of the first is higher: over 1000 nM for the first, at most 100 nM for the second.

O=C(N[C@H]1CCC[C@@H](n2c(-c3ccccc3OCCO)nc3cnc(-c4nc[nH]n4)cc32)C1)c1ncc(Cl)s1 [Example 382, 5-chloro-N-((1S,3R)-3-(2-(2-(2-hydroxyethoxy)phenyl)-6-(1H-1,2,4-triazol-3-yl)-1H-imidazo[4,5-c]pyridin-1-yl)cyclohexyl)thiazole-2-carboxamide] and COC(=O)O[C@@H]1[C@@H](NC(=O)c2ncc(Cl)s2)CCC[C@H]1n1c(-c2ccccc2F)nc2cnc(-c3nc[nH]n3)cc21 [Example 447, (1R,2S,6R)-2-(5-chlorothiazole-2-carboxamido)-6-(2-(2-fluorophenyl)-6-(1H-1,2,4-triazol-3-yl)-1H-imidazo[4,5-c]pyridin-1-yl)cyclohexyl methyl carbonate] cannot be ordered by IC50: at most 100 nM for the first, 100 to 500 nM for the second.

Compared with CO[C@@H]1C[C@@H](NC(=O)c2ncc(Cl)s2)C[C@@H](n2c(CC(C)C)nc3cnc(-c4nc(C)co4)cc32)C1 [Example 410, 5-chloro-N-((1S,3R,5R)-3-(2-isobutyl-6-(4-methyloxazol-2-yl)-1H-imidazo[4,5-c]pyridin-1-yl)-5-methoxycyclohexyl)thiazole-2-carboxamide], [N-]=[N+]=N[C@@H]1[C@@H](NC(=O)c2ncc(Cl)s2)CCC[C@H]1n1c(-c2ccccc2F)nc2cnc(-c3nc[nH]n3)cc21 [Example 449, N-((1S,2R,3R)-2-azido-3-(2-(2-fluorophenyl)-6-(1H-1,2,4-triazol-3-yl)-1H-imidazo[4,5-c]pyridin-1-yl)cyclohexyl)-5-chlorothiazole-2-carboxamide] is lower in IC50: over 1000 nM for the first, at most 100 nM for the second.

First: CS(=O)(=O)O[C@@H]1[C@@H](NC(=O)c2ncc(Cl)s2)CCC[C@H]1n1c(-c2ccccc2F)nc2cnc(-c3nc[nH]n3)cc21 [Example 448, (1R,2S,6R)-2-(5-chlorothiazole-2-carboxamido)-6-(2-(2-fluorophenyl)-6-(1H-1,2,4-triazol-3-yl)-1H-imidazo[4,5-c]pyridin-1-yl)cyclohexyl methanesulfonate]
Second: [N-]=[N+]=N[C@H]1[C@@H](NC(=O)c2ncc(Cl)s2)CCC[C@H]1n1c(-c2ccccc2F)nc2cnc(-c3nc[nH]n3)cc21 [Example 450, N-((1S,2S,3R)-2-azido-3-(2-(2-fluorophenyl)-6-(1H-1,2,4-triazol-3-yl)-1H-imidazo[4,5-c]pyridin-1-yl)cyclohexyl)-5-chlorothiazole-2-carboxamide]
The IC50 of the first is lower: 500 to 1000 nM for the first, over 1000 nM for the second. The first is the more potent here.

Reference: patent US20260159512A1, “BCAT2 INHIBITORS” (AGIOS PHARMACEUTICALS, INC., priority 2021, published 2026)
